Measurements reported in paper PMC12670405, “Second-Generation AURKA-Targeting PROTACs: Structural Optimization toward in Vivo Degradation in Neuroblastoma” (Journal of Medicinal Chemistry, 2025).
Where two headings read alike, the source gives them in different places.

Assays:
[1] = tested on: NGP; assay: IncuCyte live-cell imaging, antiproliferative effect; assay type: cell-based; settings: Homo sapiens, 72 h
Description: Human neuroblastoma cell lines NGP, IMR-32, SJNB-8, SK-N-BE(2)-C, SJNB-1, SK-N-SH and SK-N-AS, as well as benign immortalized cell lines RPE and HEK293T were either bought commercially or obtained through research laboratories. […] Screening for mycoplasma contamination occurred routinely on the cells. Human neuroblastoma cell lines SH-SY5Y_shABCB1 & SH-SY5Y_shNTC were generated by transduction with pLKO.1-ABCB1_TRCN0000059683 shRNA (Sigma MISSION SHCLND) or pLKO.1-puro NT shRNA (Sigma MISSION SHC002) vectors respectively (Supplementary Table S6), packaged using Lenti-X293T (Clontech). Transduced cells were selected with 2 μg/mL puromycin. These cells were cultured in DMEM 4.5 g/L D-Glucose, L-Glutamine and 110 mg/L Sodium Pyruvate (Gibco, #11995065) supplemented with 10% fetal bovine serum, 1× Antibiotic-Antimycotic solution (Sigma-Aldrich, #A5955) and 1× MEM nonessential amino acids (Sigma-Aldrich, #M7145). Incubation of all cells occurred at 37 °C and 5% CO2.
Neuroblastoma cells were seeded in 384-well plates at different densities ranging from 1200 to 5000 cells/well and allowed to adhere overnight. RPE and HEK293T were seeded at 200 and 600 cells/well, respectively. Compound treatment was performed using the D300e Digital Dispenser (Tecan) in duplicate or triplicate and cell confluency was monitored over time using the IncuCyte Live-cell imaging system (Sartorius). […] Mean normalized confluences were calculated from 3 individual experiments.
All dose–response curves were computed on GraphPad Prism using the Variable Slope (four parameters) equation. Absolute half-maximal degradation (DC50), growth inhibitory (GI50) and enzymatic inhibitory (IC50) concentrations, as well as inhibition constants (Ki) were derived from dose–response curves via interpolation. Statistical tests were performed on GraphPad Prism and detailed in the figure legends. Unless otherwise stated, “n” in the figure legends indicates the number of independent experiments conducted at different times.

[2] = Plasma stability assay; assay type: in vitro ADME, CD-1 mouse; settings: for half-life at 1 μM: CD-1 mouse plasma, 37 °C, read-out: plasma t1/2
Description: (§1) Plasma and metabolic stability tests were performed by Eurofins Discovery. For the plasma stability assay, test compounds were incubated in CD-1 mouse plasma for 0, 0.5, 1, 1.5, and 2 h at 37 °C at a concentration of 1 μM. For the metabolic stability assay, test compounds were incubated at 37 °C in either (1) CD-1 mouse liver microsomes (MLM) (0.1 mg/mL) at a concentration of 0.1 μM for 0, 15, 30, 45, and 60 min or (2) CD-1 mouse hepatocytes (MH) (0.7 million viable cells/mL) at a concentration of 1 μM for 0, 0.5, 1, 1.5, and 2 h. At the respective time points, acetonitrile was added to the incubation mixture followed by centrifugation. Samples were analyzed by HPLC-MS/MS and peak areas were recorded for each analyte. Compound stability, expressed as the percentage of parent compound remaining, was calculated by comparing the peak area of the compound at each time point relative to that of the 0h time point. Percentage compound remaining is plotted as a function of time as a logarithmic curve. Half-life (t 1/2) is estimated from the slope of the initial linear range of the curve, assuming first-order kinetics. […] Both plasma and metabolic assay experiments were performed once with 2 replicate samples each.

[3] = Metabolic stability in mouse liver microsomes (MLM); assay type: in vitro ADME, CD-1 mouse; settings: CD-1
Description: as §1

[4] = target: T1, AURKA (Homo sapiens, UniProt O14965); assay: AURKA degradation, Simple Western; assay type: cell-based; set-up: Representative Western blot showing levels of endogenous proteins MDR1, MYCN, AURKA, and CRBN in untreated cell lines; endogenous in cells; host or cells: NGP, IMR-32, SJNB-8, SK-N-BE(2)-C, SK-N-SH, SK-N-AS, SJNB-1, RPE, HEK293T; settings: for pDC50: AURKA degradation; for DC50: read-out: AURKA DC50;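 as to AURKA Degradation 24h @1000nM: measured in NGP neuroblastoma cells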;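 as to AURKA Degradation 24h @100nM: measured in NGP neuroblastoma cells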
T1 sequence (O14965 1-403): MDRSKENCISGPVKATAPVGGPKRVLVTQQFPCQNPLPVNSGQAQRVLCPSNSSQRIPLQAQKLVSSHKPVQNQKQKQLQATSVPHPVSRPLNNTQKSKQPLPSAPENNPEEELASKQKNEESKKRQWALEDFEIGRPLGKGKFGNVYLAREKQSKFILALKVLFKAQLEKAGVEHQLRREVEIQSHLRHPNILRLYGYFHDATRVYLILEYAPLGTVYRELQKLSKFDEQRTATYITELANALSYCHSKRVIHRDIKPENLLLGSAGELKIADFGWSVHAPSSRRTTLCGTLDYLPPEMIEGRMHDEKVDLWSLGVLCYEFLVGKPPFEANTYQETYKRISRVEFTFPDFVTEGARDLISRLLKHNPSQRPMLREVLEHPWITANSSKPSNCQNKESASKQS
Description: Cells were seeded in T-25 flasks at different densities ranging from 1 to 2 million cells per flask and allowed to adhere for 1–2 days. In experiments involving compound treatment, this was done by medium replacement containing the compound(s) of interest in their corresponding concentrations. In competition binding experiments, cells were first pretreated with an excess of MK-5108, thalidomide or MG-132 for 1 h by shaking gently at room temperature prior to addition of SK4454 or SK5527. All samples were normalized to contain the same percentage of DMSO as the negative DMSO controls. Cells were harvested on ice at their respective time points by scraping, washed with ice-cold PBS to collect remaining cells, and centrifuged (2500 rpm, 4 °C). A second washing and centrifugation step was performed prior to collection of the final cell pellets which were then snap-frozen in liquid nitrogen and kept frozen at −80 °C until further processing. Lysis of cell pellets occurred in cold RIPA buffer (0.5% w/v Sodium Deoxycholate, 150 mM NaCl, 50 mM TrisHCl pH 7.5, 0.1% w/v SDS, 1% w/v NP-40) supplemented with protease and phosphatase inhibitors (Roche, #11836145001, #04906845001) by rotating gently at 4 °C for 1h, followed by a centrifugation step for 10 min (10,000 rpm, 4 °C). The supernatant was collected and concentrations of the obtained protein lysates were measured using the Pierce BCA Protein Assay Kit (Thermo Fisher Scientific, #23227).
Simple Western analyses were performed with the Wes instrument (Bio-Techne) using the 12–230 kDa Wes Separation module and the EZ standard pack reagent 1 (Biotechne, #SM-W001, #PS-ST01EZ-8) following the manufacturer’s protocol. Protein lysates were loaded at 0.8 μg/μL under denaturing conditions (0.2 μg/μL for MYCN detection). Chemiluminescence peaks were generated by the Compass Software (Bio-Techne) and the area under the peaks calculated using the Gaussian fit method. Per lane, quantified data were always normalized to that of the loading control (Vinculin) prior to calculating fold changes relative to the negative DMSO control. Mean fold changes are calculated from 3 individual experiments. A list of the primary and secondary antibodies used can be found in the Supporting Information (Supplementary Table S7).
Graphs were generated using GraphPad Prism Software (version 10.1.2) or RStudio (R-4.3.2). All dose–response curves were computed on GraphPad Prism using the Variable Slope (four parameters) equation. Absolute half-maximal degradation (DC50), growth inhibitory (GI50) and enzymatic inhibitory (IC50) concentrations, as well as inhibition constants (Ki) were derived from dose–response curves via interpolation. Statistical tests were performed on GraphPad Prism and detailed in the figure legends. Unless otherwise stated, “n” in the figure legends indicates the number of independent experiments conducted at different times.

Compound | GI50 ([1]; read-out: GI50 72h, 72h) [nM] | GI50 ([1]; read-out: pGI50 (converted)) [nM] | half-life at 1 μM [2] [h] | plasma t1/2 ([2]; plasma) [h] | microsomal CLint at 0.1 μM [3] [µL/min/mg] | AURKA Degradation 24h @100nM [4] | AURKA Degradation 24h @1000nM [4] | pDC50 [4] | Dmax ([4]; NGP, 24 h treatment) [%] | DC50 ([4]; NGP, 24 h treatment) [nM] | DC50 [4] [nM]
O=C1CCC(N2C(=O)c3ccc(N4CCN(CCNC(=O)[C@]5(Cc6cccc(Nc7nccs7)n6)CC[C@@H](Oc6cccc(Cl)c6F)CC5)CC4)cc3C2=O)C(=O)N1 (stereo partly shown) [PROTAC 4] | 44 | 44.7 | > 2 | > 2 | 656 | 85 | 93 | 8,32 | 97 | 5 | 4.8
O=C1CCC(Nc2ccc(N3CCN(CCNC(=O)[C@]4(Cc5cccc(Nc6nccs6)n5)CC[C@@H](Oc5cccc(Cl)c5F)CC4)CC3)cc2)C(=O)N1 (stereo partly shown) [PROTAC 13] | 30 | 29.5 |  |  |  | 68 | 91 | 7,9 |  |  | 12.5
O=C1CCC(N2C(=O)c3ccc(N4CCN(C(=O)CNC(=O)[C@]5(Cc6cccc(Nc7nccs7)n6)CC[C@@H](Oc6cccc(Cl)c6F)CC5)CC4)cc3C2=O)C(=O)N1 (stereo partly shown) [PROTAC 5] | 51 | 51.3 |  |  |  | 76 | 75 |  |  |  | 
Cc1cc(Nc2ccc(F)c(CC3(C(=O)N4CCC(CN5CCC(c6ccc(N7CCC(=O)NC7=O)cn6)CC5)CC4)CCN(Cc4cccc(Cl)c4F)CC3)n2)n[nH]1 [PROTAC 36] | 60 | 60.3 |  |  |  | 58 | 78 |  |  |  | 
O=C1CCC(N2C(=O)c3cccc(OCCOCCOCCN4CCN(C(=O)[C@]5(Cc6cccc(Nc7nccs7)n6)CC[C@@H](Oc6cccc(Cl)c6F)CC5)CC4)c3C2=O)C(=O)N1 (stereo partly shown) [PROTAC 3] | 42 | 41.7 | 1.32 |  | 456 | 80 | 77 | 8,06 | 81 |  | 8.7
O=C1CCC(N2C(=O)c3ccc(OCCOCCN4CCN(C(=O)[C@]5(Cc6cccc(Nc7nccs7)n6)CC[C@@H](Oc6cccc(Cl)c6F)CC5)CC4)cc3C2=O)C(=O)N1 (stereo partly shown) [PROTAC 11] | 38 | 38 |  |  |  | 78 | 80 | 8,31 |  |  | 4.9
